Experimental data taken from patent US12435061B2 (priority 2020, dated 2025).
pIC50: −log10 of the molar value. Converted amounts (≈) assume the structure as drawn. “And” between values parts separate entries of the source, which are not always exact repeats. Equal values may be shown once. Read-outs that look alike come from different tables or passages of the source.

Legend:
[1] = target: T1, hTRPV3 (Homo sapiens (Human), UniProt Q8NET8); test: Whole-cell patch clamp, hTRPV3 Phase 1 / Phase 2 currents; format: cell-based; conditions: for pIC50: inward, whole-cell patch clamp
How it was run: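 Whole-cell recordings on induced TRPV3 cells replated on coverslips, held at −40 mV with 400 ms ramps from −120 to +100 mV every 5 s; currents read at −80 and +80 mV. Ringer's external solution; current activated by heating to ≥28 °C or 20 μM 2-APB.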

[2] = target: rat (r) TRPV3 (Rattus norvegicus, UniProt E9PU00); test: Whole-cell patch clamp, rTRPV3 Phase 1 / Phase 2 currents; format: cell-based
From the text: Whole-cell patch clamp experiments permit the detection of currents through the TRPV3 channel in the cell line described above. A glass electrode is brought into contact with a single cell and the membrane is then ruptured, permitting control of the voltage of the cell membrane and measurement of currents flowing across the membrane using the amplifier attached to the electrode. A perfusion system permits control of the extracellular solution, including the addition of blockers and activators of the current. The current can be activated by heating this solution to 28° C. or warmer or by addition of 20 μM 2-APB to the solution.
TRPV3 cells were induced 20-48 hours, removed from growth plates, and replated at low density (to attain good single-cell physical separation) on glass coverslips for measurement. In some cases, cells were grown in low density overnight on glass coverslips. Patch clamp recordings were made in the whole-cell mode with a holding potential of −40 mV. Every 5 seconds, a voltage ramp was applied from −120 to +100 mV, 400 ms in duration. Currents elicited were quantified at −80 mV and +80 mV. The internal solution consisted of 140 mM cesium aspartate, 10 mM EGTA, 2.27 mM MgCl2, 1.91 mM CaCl2) and 10 mM HEPES, pH to 7.2 with KOH; with 50 nM calculated free […]. External solution was Ringer's solution described above. Upon addition of 2-APB or upon heating of the extraceullar solution as described above, TRPV3 current was induced only in TRPV3-expressing cells and not in parental HEK293 TREx cells. […] Removal of the stimulus caused most of the current to go away, and inhibitor addition could still inhibit this current.
In Tables 3 and 4, Phase 1 refers to Phase 1 current for human (h) TRPV3 or rat (r) TRPV3, and Phase 2 refers to Phase 2 current for human (h) TRPV3 or rat (r) TRPV3. The hTRPV3 and rTRPV3 assays were performed as described herein. hERG refers to the inhibition the human ERG (hERG) channel. NaV1.5, refers to the pore forming aL-subunit of the voltage-dependent cardiac Na(+) channel and is an integral membrane protein involved in the initiation and conduction of action potentials. hTRPV3 HAMA IC50 refers to the IC50 of TRPV3 cells stably expressed in TRex-293 cells. Solubility Ringer refers to the compounds' solubility in Ringer's solution. LM T1/2 refers to liver microsome half-lives in either rat or human liver microsomes. FLIPR IC50 refers to the IC50 of the test compounds against recombinant hTRPV3 cells.

[3] = target: T1, hTRPV3; test: hTRPV3 HAMA IC50 assay (Hamamatsu FDSS6000 calcium flux, TRex-293 cells); conditions: 5 min
Experimental: IC50s were calculated using CBIS from ChemInnovation (San Diego).

[4] = Metabolic Stability assay, rat liver microsomes; format: in vitro ADME
How it was run: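 Test article at 1 μM starting concentration incubated with human or rat liver microsomes at 37 °C, with the reaction started by NADPH regeneration components. Aliquots were quenched in cold acetonitrile/MeOH/H2O at 0, 7, 15, 30 and 60 min and analysed by HPLC/MS/MS.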

[5] = Metabolic Stability assay, human liver microsomes; format: in vitro ADME
Experimental: Metabolic Stability assay: The metabolic stability was determined by adding compound dissolved in DMSO to human or rat, liver microsomes. Briefly, assays were run with a starting concentration of 1 μM test article. The reaction was started by addition of NADPH regeneration components at 37° C. at which time an aliquot was immediately quenched in ice-cold acetonitrile/MeOH/H2O solution. Reaction mixture was incubated at 37° C. on a shaker, and additional aliquots were taken at 7, 15, 30 and 60 minutes. Following quench and centrifugation, samples were analyzed on HPLC/MS/MS.

[6] = Aqueous solubility assay in Normal Ringer Solution; conditions: for solubility at 40 min: saline or isotonic, kinetic from dmso stock
Experimental: Following vortex and incubation for a sufficient time (e.g. 40 minutes at room temperature), solutions were filtered, quenched with acetonitrile, and analyzed by Liquid Chromotography. Solubility Limits were determined by comparison to a standard curve.

[7] = target: human hERG channels (Homo sapiens (Human), UniProt Q12809); test: hERG assay (patch clamp, CHO cells); format: cell-based
[8] = system: male C57BL/6J mice, AEW induced pruritus; test: Acetone-ether-water (AEW) induced pruritus model in mice; conditions: HC-030031 4 mg/mouse SC 5 min before recording; P=0.0005 vs Vehicle2
[9] = Phase 1 current, read-out: hTRPV3 Patch P1 Inwd
[10] = Phase 1 current, read-out: hTRPV3 (nM) (Phase 1)
[11] = Phase 1 current, read-out: rTRPV3 (nM) (Phase 1)
[12] = Phase 2 current, read-out: rTRPV3 (nM) (Phase 2)
[13] = Phase 2 current, read-out: hTRPV3 (nM) (Phase 2)
[14] = Phase 1 current, human TRPV3, read-out: hTRPV3 (nM) Phase 1

Sequence of human hERG channels (Q12809 whole entry): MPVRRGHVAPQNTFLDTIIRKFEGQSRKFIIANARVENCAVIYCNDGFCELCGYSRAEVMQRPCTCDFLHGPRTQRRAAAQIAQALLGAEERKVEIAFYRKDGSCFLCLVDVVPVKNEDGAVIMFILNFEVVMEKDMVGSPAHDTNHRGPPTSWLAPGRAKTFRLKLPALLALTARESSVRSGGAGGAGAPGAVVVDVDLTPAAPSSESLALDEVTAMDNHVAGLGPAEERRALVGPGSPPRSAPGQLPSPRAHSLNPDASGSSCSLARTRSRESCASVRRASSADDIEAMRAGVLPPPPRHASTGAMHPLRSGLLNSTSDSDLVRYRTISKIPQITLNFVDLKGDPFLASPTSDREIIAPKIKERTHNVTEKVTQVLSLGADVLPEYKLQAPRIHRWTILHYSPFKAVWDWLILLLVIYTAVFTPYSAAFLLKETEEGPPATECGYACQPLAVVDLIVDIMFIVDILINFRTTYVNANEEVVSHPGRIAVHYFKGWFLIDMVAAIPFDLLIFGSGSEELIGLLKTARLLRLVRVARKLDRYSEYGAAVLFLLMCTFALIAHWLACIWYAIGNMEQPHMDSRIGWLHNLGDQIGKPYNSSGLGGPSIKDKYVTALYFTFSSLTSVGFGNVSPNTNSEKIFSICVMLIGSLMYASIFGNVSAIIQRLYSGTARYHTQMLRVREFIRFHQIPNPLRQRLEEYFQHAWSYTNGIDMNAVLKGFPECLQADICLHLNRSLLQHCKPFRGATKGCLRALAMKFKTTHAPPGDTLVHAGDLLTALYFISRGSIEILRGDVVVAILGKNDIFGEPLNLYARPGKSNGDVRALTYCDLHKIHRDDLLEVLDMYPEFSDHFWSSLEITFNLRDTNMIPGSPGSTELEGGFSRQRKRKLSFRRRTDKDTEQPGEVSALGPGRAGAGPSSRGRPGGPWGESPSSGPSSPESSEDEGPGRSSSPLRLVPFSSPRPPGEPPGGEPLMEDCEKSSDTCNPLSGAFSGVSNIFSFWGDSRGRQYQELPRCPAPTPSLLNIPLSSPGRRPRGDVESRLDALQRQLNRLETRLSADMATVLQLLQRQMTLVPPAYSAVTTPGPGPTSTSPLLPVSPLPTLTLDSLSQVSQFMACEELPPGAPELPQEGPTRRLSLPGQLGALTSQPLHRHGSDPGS
Sequence of rat (r) TRPV3 (E9PU00 1-791): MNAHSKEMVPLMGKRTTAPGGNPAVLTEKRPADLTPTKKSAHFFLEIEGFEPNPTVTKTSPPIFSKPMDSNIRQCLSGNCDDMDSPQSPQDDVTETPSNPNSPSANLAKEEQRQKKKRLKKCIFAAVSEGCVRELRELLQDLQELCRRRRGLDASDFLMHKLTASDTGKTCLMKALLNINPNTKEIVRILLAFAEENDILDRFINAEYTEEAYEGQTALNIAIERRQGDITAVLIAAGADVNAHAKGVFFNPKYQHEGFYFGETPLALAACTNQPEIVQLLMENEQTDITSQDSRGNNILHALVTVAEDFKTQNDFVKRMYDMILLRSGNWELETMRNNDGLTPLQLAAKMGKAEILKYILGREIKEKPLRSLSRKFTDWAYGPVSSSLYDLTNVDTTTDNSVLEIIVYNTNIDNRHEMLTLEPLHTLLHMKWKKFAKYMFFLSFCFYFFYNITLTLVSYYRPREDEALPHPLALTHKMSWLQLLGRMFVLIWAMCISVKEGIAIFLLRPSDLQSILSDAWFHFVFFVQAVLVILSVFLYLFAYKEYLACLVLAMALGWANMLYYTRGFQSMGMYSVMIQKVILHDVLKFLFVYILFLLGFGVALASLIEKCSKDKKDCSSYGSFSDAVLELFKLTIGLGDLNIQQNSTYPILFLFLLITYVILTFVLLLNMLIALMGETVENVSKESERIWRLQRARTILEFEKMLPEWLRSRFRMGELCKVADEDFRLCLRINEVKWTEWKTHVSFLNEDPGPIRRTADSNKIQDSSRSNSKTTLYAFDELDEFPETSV
T1 sequence (Q8NET8 whole entry): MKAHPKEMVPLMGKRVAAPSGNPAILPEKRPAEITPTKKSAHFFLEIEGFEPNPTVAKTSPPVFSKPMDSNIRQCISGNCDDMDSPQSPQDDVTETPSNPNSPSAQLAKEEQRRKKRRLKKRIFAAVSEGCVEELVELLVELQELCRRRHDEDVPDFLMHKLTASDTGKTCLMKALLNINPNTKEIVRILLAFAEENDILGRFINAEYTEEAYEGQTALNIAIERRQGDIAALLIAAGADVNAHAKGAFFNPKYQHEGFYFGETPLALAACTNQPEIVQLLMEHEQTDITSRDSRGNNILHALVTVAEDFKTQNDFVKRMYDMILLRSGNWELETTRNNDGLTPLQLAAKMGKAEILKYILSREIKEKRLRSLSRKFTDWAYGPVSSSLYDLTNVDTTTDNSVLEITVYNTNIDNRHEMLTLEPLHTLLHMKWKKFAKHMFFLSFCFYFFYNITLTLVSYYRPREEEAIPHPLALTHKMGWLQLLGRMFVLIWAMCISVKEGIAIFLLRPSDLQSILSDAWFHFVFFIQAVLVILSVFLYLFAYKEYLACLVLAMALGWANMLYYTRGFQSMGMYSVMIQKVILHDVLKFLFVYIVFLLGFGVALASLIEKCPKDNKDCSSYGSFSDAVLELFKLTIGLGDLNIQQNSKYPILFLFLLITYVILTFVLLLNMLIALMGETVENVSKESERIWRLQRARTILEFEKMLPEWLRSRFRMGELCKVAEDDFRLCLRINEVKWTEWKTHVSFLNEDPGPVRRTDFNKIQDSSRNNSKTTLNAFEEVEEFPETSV

Compound | pIC50 [1, 9] | solubility at 40 min ([6]; Normal Ringer Solution) [µM] | IC50 [1, 14] [nM] | half-life at 1 μM ([4]; read-out: LM T1/2 (min) rat) [min] | IC50 ([7]; (PL), read-out: hERG (nM) (PL)) [M] | half-life at 1 μM ([5]; read-out: LM T1/2 (min) human) [min] | further results
NC(=O)c1cc(-c2ccccc2)ccc1N1CC[C@@H](Oc2ccc(C(F)(F)F)cn2)C1 [Compound 1-33, (R)-4-(3-(5-(trifluoromethyl)pyridin-2-yloxy)pyrrolidin-1-yl)biphenyl-3-carboxamide] | 6.00 to 7.00 | – | – | – | – | – | IC50 [1, 10]: 139 nM; IC50 [2, 11]: 283 nM; IC50 [2, 12]: 776 nM; hTRPV3 HAMA IC50 (nM) (5 min) [3]: no fit (5 min)
NC(=O)c1cc(C(F)(F)F)ccc1N1CC[C@H](Oc2ccc(C(F)(F)F)cn2)C1 [Compound 1-58, (S)-5-(trifluoromethyl)-2-(3-(5-(trifluoromethyl)pyridin-2-yloxy)pyrrolidin-1-yl)benzamide] | – | > 11.3 | – | – | – | – | IC50 ([1]; hTRPV3 (nM) (Phase 1)): 1250 nM and 1520 nM and > 3200 nM; IC50 ([1]; hTRPV3 Patch P2 Inwd (nM)): 100 to 1000 nM; IC50 ([1]; read-out: hTRPV3 (nM) (Phase 1)): 1040 nM; IC50 ([1]; read-out: hTRPV3 (nM) (Phase 2)): 241 nM; half-life at 1 μM ([4]; read-out: LM T1/2 (min) (rat)): > 60 min; hTRPV3 HAMA IC50 (nM) (5 min) [3]: no fit (5 min); half-life at 1 μM ([5]; read-out: LM T1/2 (min) (human)): > 60 min
NC(=O)c1cc(-c2ccc(F)cc2)ccc1N1CC[C@H](Oc2ccc(C(F)(F)F)cn2)C1 [Compound 1-65, (S)-4′-fluoro-4-(3-(5-(trifluoromethyl)pyridin-2-yloxy)pyrrolidin-1-yl)biphenyl-3-carboxamide] | 6.00 to 7.00 | – | – | – | – | – | IC50 [1, 10]: 475 nM; pIC50 ([1]; Phase 2 current, read-out: hTRPV3 Patch P2 Inwd): 6.00 to 7.00; IC50 [1, 13]: 417 nM; half-life at 1 μM ([4]; read-out: LM T1/2 (min) (rat)): 77.3 min; IC50 [2, 11]: 1140 nM; IC50 [2, 12]: 3250 nM; hTRPV3 HAMA IC50 (nM) (5 min) [3]: no fit (5 min); Solubility Ringer (nM) ([6]; Normal Ringer Solution, room temperature): BLQ
OCc1cc(C(O)c2ccccc2Cl)ccc1N1CC[C@H](Oc2ncccc2Cl)C1 (stereo partly drawn) [Compound 1-262, (2-chlorophenyl)(4-((S)-3-(3-chloropyridin-2-yloxy)pyrrolidin-1-yl)-3-(hydroxymethyl)phenyl)methanol] | 7.00 to 8.00 | – | – | – | – | – | IC50 [1, 10]: 23.7 nM; half-life at 1 μM ([4]; read-out: LM T1/2 (min) (rat)): 14.6 min; IC50 [2, 11]: ~20 nM; IC50 [2, 12]: 21.3 nM; solubility at 40 min [6]: ~4.7 µM (≈ 2.09 µg/mL)
OCc1cc([C@@H](O)c2ccccc2Cl)ccc1N1CC[C@H](Oc2ncccc2F)C1 [Compound 1-321, (2-chlorophenyl)(4-((S)-3-(3-fluoropyridin-2-yloxy)pyrrolidin-1-yl)-3-(hydroxymethyl)phenyl)methanol] | 7.00 to 8.00 | > 9.8 | – | – | – | – | IC50 [1, 10]: 12.2 nM; hTRPV3 (nM) (Phase 2) ([1]; Phase 2 current): Incomplete Block; IC50 [1, 13]: ~30 nM and ~44 nM; half-life at 1 μM ([4]; read-out: LM T1/2 (min) (rat)): 16.9 min; IC50 [2, 11]: 5.37 nM; IC50 ([2]; rTRPV3 (nM) (Phase 2), Phase 2 current): ~15.7 nM; pIC50 ([7]; (PL), read-out: hERG): ~5.43
CC(C)c1ccccc1-c1ccc(C2CCN(C(=O)c3ccc(F)cn3)C2)c(CO)c1 (stereo not shown) [Compound 2-29, (5-fluoropyridin-2-yl)(3-(3-(hydroxymethyl)-2′-isopropylbiphenyl-4-yl)pyrrolidin-1-yl)methanone] | > 8.00 | > 16.6 | 6.03 | 16.8 | 7.48e-06 | 8.8 | IC50 ([2]; rTRPV3 (nM) Phase 1, Phase 1 current, rat TRPV3): 5.56 nM; IC50 ([7]; (M), read-out: hERG): 7.38e-06 M
CC(C)c1ccccc1-c1ccc(C2CCN(C(=O)c3cc(Cl)ccn3)C2)c(CO)c1 (stereo not shown) [Compound 2-49, (4-chloropyridin-2-yl)(3-(3-(hydroxymethyl)-2′-isopropylbiphenyl-4-yl)pyrrolidin-1-yl)methanone] | 7.00 to 8.00 | > 12.8 | 25.7 | 20.6 | 6.97e-06 | 12.2 | –
CCc1ccccc1-c1ccc(C2CCN(C(=O)c3ncccc3Cl)C2)c(CO)c1 (stereo not shown) [Compound 2-52, (3-chloropyridin-2-yl)(3-(2′-ethyl-3-(hydroxymethyl)biphenyl-4-yl)pyrrolidin-1-yl) methanone] | 7.00 to 8.00 | > 17.8 | 67.3 | 9.2 | – | 14.4 | –
CCc1ccccc1-c1ccc(C2CCN(C(=O)c3cccc(Cl)n3)C2)c(CO)c1 (stereo not shown) [Compound 2-53, (6-chloropyridin-2-yl)(3-(2′-ethyl-3-(hydroxymethyl)biphenyl-4-yl)pyrrolidin-1-yl) methanone] | > 8.00 | ~7.7 (≈ 3.24 µg/mL) | 8.39 | 12.3 | – | 24.9 | –
O=C(c1ccc(Cl)cn1)N1CCC(c2ccc(-c3ccccc3C3CC3)cc2CO)C1 (stereo not shown) [Compound 2-56] | > 8.00 | ~5.1 (≈ 2.21 µg/mL) | 2.04 | – | 7.29e-06 | 24.6 | –
O=C(c1ccc(C(F)(F)F)cn1)N1CCC(c2ccc(-c3ccccc3C3CC3)cc2CO)C1 (stereo not shown) [Compound 2-58, (3-(2′-cyclopropyl-3-(hydroxymethyl)biphenyl-4-yl)pyrrolidin-1-yl)(5-(trifluoromethyl)pyridin-2-yl)methanone] | 7.00 to 8.00 | ~5.2 (≈ 2.43 µg/mL) | 27.3 | 47.9 | 1.5e-05 | 54.6 | –
CCc1cc(C)ccc1-c1ccc(C2CCN(C(=O)c3ccc(F)cn3)C2)c(CO)c1 (stereo not shown) [Compound 2-62, (3-(2′-ethyl-3-(hydroxymethyl)-4′-methylbiphenyl-4-yl)pyrrolidin-1-yl)(5-fluoropyridin-2-yl)methanone] | 7.00 to 8.00 | > 12.1 | 64.9 | 14 | 1.77e-05 | 14.9 | –
O=C(c1ccc(F)cn1)N1CCC(c2ccc(-c3ccccc3C3CC3)cc2CO)C1 (stereo not shown) [Compound 2-72, (3-(2′-cyclopropyl-3-(hydroxymethyl)biphenyl-4-yl)pyrrolidin-1-yl)(5-fluoropyridin-2-yl)methanone] | – | ~25.5 (≈ 10.6 µg/mL) | – | 31.3 | 8.46e-06 | 17.5 | IC50 ([7]; (M), read-out: hERG): 9.24e-06 M
CC(C)c1ccc(NC(=O)Cn2cnc3c2c(=O)n(C)c(=O)n3C)cc1 [HC-030031] | – | – | – | – | – | – | scratching bouts [8]: significantly decreased; scratching time [8]: significantly decreased
